Measurements published in US5840747A, “Calcium channel antagonists” (Eli Lilly and Company, priority 1995, dated 1998).
Entries after “also recorded” stand apart in the source; their conditions may differ.

How the values were obtained:
Type in all cases: cell-based
[1] = tested on: rat aorta; test: Contractile responses of rat aortic rings to norepinephrine, serotonin and U46619 (isolated organ bath); settings: for inhibitory effect on contractile responses to norepinephrine, serotonin, and U46619: summary in discussion; for dependence of the inhibition of contractile responses on the endothelium: rat aortic rings with versus without intact endothelium
Excerpt: Male Wistar rats (250-350 g; Charles River Laboratories, Portage, Mich.) were sacrificed by cervical dislocation. The aorta was removed and cleaned of extraneous tissue and cut into ring segments, each approximately 4-5 mm long. In some tissues, endothelium was removed by rotating the ring segment around the tip of a forceps 10 times. Lack of tissue relaxation to acetylcholine (10^-6 M) after contraction with norepinephrine (10^-7 M) was used as evidence for denuded endothelium. […] Tissues were placed under an optimal force of 4 grams and equilibrated for one hour with washes every 15 minutes. […] All tissues were initially challenged with KCl (67 mM) to establish viability. Concentration-response curves were generated in a cumulative fashion and are reported as a percentage of an initial KCl contraction (67 mM) produced in each tissue. Vehicle, β-estradiol, 14 or 16 were added to the tissues 60 minutes prior to initiating the concentration-response curves to agonists. […] Only one agonist concentration-response curve was generated in each tissue. All results are expressed as mean±SE where n represents the number of rings examined.

[2] = target: T1, calcium channels in vascular tissue (Rattus norvegicus, UniProt P22002); test: Contractile response of rat aorta to the calcium agonist BayK 8644; settings: for inhibition of the contraction to BayK 8644: absence of an intact endothelium, 10 mM KCl prior to BayK 8644 (FIGS. 7 and 8)
T1 construct: BayK 8644-induced contraction
T1 sequence (P22002 whole entry): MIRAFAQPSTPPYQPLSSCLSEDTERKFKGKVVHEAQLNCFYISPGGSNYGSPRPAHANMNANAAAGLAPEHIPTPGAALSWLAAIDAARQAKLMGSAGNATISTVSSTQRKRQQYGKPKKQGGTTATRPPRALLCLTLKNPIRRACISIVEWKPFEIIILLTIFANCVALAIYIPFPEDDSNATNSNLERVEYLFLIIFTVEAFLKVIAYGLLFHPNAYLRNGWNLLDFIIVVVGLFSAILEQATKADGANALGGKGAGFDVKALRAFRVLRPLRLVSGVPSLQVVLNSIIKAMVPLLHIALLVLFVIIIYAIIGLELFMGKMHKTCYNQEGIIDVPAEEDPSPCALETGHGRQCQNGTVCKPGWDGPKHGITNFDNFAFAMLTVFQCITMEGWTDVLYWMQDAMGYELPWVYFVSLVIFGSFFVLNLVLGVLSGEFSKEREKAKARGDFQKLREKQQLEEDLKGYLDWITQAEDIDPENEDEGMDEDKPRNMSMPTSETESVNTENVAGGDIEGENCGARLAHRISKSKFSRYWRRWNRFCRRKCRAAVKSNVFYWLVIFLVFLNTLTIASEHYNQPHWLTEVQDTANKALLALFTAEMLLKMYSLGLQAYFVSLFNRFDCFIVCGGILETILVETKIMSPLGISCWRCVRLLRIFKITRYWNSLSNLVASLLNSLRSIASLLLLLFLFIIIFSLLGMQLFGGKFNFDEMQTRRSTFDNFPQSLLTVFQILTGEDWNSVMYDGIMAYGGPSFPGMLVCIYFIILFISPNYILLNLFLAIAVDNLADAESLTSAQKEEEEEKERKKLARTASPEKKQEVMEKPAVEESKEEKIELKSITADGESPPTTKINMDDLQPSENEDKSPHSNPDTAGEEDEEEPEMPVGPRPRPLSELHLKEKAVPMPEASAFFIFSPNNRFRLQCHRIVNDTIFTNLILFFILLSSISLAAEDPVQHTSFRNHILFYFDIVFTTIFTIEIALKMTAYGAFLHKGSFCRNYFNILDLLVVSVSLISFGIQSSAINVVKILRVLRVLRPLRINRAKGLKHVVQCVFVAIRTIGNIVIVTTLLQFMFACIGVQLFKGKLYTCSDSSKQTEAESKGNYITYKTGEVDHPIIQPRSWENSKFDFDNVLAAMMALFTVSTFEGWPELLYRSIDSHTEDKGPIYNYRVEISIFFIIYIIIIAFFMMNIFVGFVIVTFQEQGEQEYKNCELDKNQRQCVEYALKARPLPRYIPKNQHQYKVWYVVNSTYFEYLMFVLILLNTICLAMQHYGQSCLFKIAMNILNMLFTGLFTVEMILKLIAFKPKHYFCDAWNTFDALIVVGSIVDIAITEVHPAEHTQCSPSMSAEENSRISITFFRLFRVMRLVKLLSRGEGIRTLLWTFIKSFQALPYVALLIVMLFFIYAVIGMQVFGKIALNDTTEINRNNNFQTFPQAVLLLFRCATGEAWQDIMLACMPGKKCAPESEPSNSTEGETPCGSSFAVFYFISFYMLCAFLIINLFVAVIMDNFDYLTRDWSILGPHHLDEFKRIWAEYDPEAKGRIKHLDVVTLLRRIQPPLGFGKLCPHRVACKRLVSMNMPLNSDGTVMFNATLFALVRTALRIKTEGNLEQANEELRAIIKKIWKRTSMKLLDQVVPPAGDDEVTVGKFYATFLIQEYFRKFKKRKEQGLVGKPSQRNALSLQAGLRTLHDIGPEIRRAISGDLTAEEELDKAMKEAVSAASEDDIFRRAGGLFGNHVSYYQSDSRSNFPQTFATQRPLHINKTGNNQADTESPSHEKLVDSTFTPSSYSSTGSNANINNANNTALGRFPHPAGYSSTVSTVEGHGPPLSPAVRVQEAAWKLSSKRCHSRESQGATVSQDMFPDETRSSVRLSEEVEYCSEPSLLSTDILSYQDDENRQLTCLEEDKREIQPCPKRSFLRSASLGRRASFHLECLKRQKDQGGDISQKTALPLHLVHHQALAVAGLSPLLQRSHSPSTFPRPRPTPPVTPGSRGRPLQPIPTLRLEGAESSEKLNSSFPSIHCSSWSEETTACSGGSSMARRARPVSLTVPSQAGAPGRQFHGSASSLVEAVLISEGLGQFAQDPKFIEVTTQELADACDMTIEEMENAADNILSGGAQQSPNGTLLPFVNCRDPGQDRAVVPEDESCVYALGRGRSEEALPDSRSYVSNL
Excerpt: (§1) Male Wistar rats (250-350 g; Charles River Laboratories, Portage, Mich.) were sacrificed by cervical dislocation. The aorta was removed and cleaned of extraneous tissue and cut into ring segments, each approximately 4-5 mm long. In some tissues, endothelium was removed by rotating the ring segment around the tip of a forceps 10 times. Lack of tissue relaxation to acetylcholine (10^-6 M) after contraction with norepinephrine (10^-7 M) was used as evidence for denuded endothelium. Tissues with an intact endothelium relaxed to acetylcholine with 88.5±1.6% (n-11) relaxation.
Ring segments were placed between two stainless steel hooks and mounted in isolated organ baths containing 10 ml of modified Krebs' bicarbonate buffer of the following composition (mM): NaCl, 118.2; KCl, 4.6' CaCl2.2H2 O, 1.6; KH2 PO4, 1.2; MgSO4, 1.2; glucose, 10; and NaHCO3, 24.8. Organ bath solutions were aerated with 95% O2 /5% CO2 and maintained at 37° C. Tissues were placed under an optimal force of 4 grams and equilibrated for one hour with washes every 15 minutes. Changes in force were recorded and analyzed by a Biopac MP100 (World Precision Instruments, Sarasota, Fla.) data acquisition system via Sensotec (model MBL 5514-02) transducers (Sensotec Inc. Columbus, Ohio).
All tissues were initially challenged with KCl (67 mM) to establish viability. Concentration-response curves were generated in a cumulative fashion and are reported as a percentage of an initial KCl contraction (67 mM) produced in each tissue. Vehicle, β-estradiol, 14 or 16 were added to the tissues 60 minutes prior to initiating the concentration-response curves to agonists. In studies with BayK 8644, tissues were exposed to 10 mM KCl prior to initiating the concentration-response curves for BayK 8644. Only one agonist concentration-response curve was generated in each tissue. All results are expressed as mean±SE where n represents the number of rings examined. […]

[3] = tested on: rat aorta; test: Endothelium integrity: relaxation to acetylcholine after contraction with norepinephrine; settings: acetylcholine 10^-6 M after contraction with norepinephrine 10^-7 M, tissues with intact endothelium, n-11
Excerpt: as §1

[4] = 10^-6 and 10^-5 M, rat aorta with and without intact endothelium, added 60 minutes prior to agonist

Row | Compound | inhibition of contractile responses to serotonin ([1]; rat aorta with and without intact endothelium (FIG. 4), concentration not given) | inhibition of serotonin response compared with norepinephrine response ([1]; rat aorta with and without intact endothelium (FIGS. 4 and 5)) | inhibitory effect on contractile responses to norepinephrine, serotonin, and U46619 ([1]; rat aorta) | dependence of the inhibition of contractile responses on the endothelium [1] | inhibition of the contraction to BayK 8644 [2] | inhibition of contractile response to U46619 [1, 4] | inhibition of contractile response to norepinephrine [1, 4] | inhibition of contractile response to serotonin [1, 4] | potency in inhibiting contraction to serotonin relative to norepinephrine or U46619 ([1]; rat aorta) | relative potency as calcium channel antagonist ([2]; comparison between substances) | percent relaxation to acetylcholine at 1 µM [3] [%]
1 | O=C(c1ccc(OCCN2CCCCC2)cc1)c1c(-c2ccc(O)cc2)sc2cc(O)ccc12 [Compound 14, 6-hydroxy-2-(4-hydroxyphenyl)-3-[4-(2-piperidinoethoxy)benzoyl]benzo[b]thiophene] | inhibited | greater than with norepinephrine | marked inhibitory effect | independent of an intact endothelium | inhibition of the contraction to BayK 8644 occurred |  |  |  |  |  | 
2 | O=C(c1ccc(OCCN2CCCC2)cc1)c1c(-c2ccc(O)cc2)sc2cc(O)ccc12 [Compound 16, 6-hydroxy-2-(4-hydroxyphenyl)-3-[4-(2-pyrrolidinoethoxy)benzoyl]benzo[b]thiophene] |  |  | marked inhibitory effect | appeared independent of the endothelium | inhibition of the contraction to BayK 8644 occurred | potently inhibited | potently inhibited | potently inhibited | more potent in inhibiting the contractile response to serotonin relative to norepinephrine or U46619 | considerably more potent as a calcium channel antagonist than 14; also recorded: more potent calcium channel antagonist in vascular tissue than estrogen | 
3 | CC(=O)OCC[N+](C)(C)C [acetylcholine] |  |  |  |  |  |  |  |  |  |  | 88.5 ± 1.6
